Read-outs that look alike come from different tables or passages of the source.
Assays:
human recombinant PDE2A = human recombinant PDE2A (Homo sapiens, UniProt O00408); assay: enzyme assay, inhibitory potency for human recombinant PDE2A; type: biochemical; settings: for Selectivity Ratio PDE10A/PDE2A: IC50 hPDE10A / IC50 hPDE2A; for IC50: human recombinant PDE2A, enzyme assay (BioCrea), read-out: IC50 hPDE2A
Text: (§1) The IC50 values obtained by this assay represent relative measures of the respective target affinity of the compounds.

human recombinant PDE10A = human recombinant PDE10A (Homo sapiens, UniProt Q9Y233); assay: enzyme assay, inhibitory potency for human recombinant PDE10A; type: biochemical; settings: enzyme assay (BioCrea), read-out: IC50 hPDE10A
Chain of human recombinant PDE10A (Q9Y233 whole entry): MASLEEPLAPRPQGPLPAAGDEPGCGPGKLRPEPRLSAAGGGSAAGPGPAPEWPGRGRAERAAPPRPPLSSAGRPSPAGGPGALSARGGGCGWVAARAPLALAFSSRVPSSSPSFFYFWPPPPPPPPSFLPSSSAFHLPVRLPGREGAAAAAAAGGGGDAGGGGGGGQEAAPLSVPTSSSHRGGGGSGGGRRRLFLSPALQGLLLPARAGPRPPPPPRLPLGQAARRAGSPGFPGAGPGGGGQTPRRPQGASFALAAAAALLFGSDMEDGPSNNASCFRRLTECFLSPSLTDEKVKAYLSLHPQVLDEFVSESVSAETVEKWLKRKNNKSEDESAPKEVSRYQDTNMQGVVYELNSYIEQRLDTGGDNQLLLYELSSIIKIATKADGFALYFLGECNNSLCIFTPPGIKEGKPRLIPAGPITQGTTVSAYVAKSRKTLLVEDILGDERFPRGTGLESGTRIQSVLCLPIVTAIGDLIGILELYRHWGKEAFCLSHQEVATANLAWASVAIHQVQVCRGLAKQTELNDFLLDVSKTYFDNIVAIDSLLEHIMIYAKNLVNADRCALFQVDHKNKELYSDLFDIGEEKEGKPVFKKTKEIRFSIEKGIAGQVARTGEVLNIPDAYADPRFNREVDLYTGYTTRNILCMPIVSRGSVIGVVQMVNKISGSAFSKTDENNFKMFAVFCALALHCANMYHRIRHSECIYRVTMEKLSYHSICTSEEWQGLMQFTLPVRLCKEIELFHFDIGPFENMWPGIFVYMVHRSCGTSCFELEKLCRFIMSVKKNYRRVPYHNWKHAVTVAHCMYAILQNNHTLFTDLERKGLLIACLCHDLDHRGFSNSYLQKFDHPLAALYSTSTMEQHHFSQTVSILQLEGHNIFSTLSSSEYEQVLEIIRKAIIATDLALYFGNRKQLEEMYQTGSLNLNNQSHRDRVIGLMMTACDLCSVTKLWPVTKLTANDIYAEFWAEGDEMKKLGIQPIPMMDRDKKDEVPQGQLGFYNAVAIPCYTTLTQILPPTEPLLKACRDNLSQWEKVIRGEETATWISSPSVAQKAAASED
Text: as §1

[1] = parameters: method as in PMID 24189054; settings: rats, cited from earlier work
hPDE2A = settings: cited from earlier work
hPDE10A = test system: hPDE10A; parameters: method as in PMID 24189054, PMID 23651455; settings: cited from earlier work
[2] = parameters: method as in PMID 24189054, PMID 23651455; settings: monkeys, striatum; cited from earlier work

Chain of human recombinant PDE2A (O00408 whole entry): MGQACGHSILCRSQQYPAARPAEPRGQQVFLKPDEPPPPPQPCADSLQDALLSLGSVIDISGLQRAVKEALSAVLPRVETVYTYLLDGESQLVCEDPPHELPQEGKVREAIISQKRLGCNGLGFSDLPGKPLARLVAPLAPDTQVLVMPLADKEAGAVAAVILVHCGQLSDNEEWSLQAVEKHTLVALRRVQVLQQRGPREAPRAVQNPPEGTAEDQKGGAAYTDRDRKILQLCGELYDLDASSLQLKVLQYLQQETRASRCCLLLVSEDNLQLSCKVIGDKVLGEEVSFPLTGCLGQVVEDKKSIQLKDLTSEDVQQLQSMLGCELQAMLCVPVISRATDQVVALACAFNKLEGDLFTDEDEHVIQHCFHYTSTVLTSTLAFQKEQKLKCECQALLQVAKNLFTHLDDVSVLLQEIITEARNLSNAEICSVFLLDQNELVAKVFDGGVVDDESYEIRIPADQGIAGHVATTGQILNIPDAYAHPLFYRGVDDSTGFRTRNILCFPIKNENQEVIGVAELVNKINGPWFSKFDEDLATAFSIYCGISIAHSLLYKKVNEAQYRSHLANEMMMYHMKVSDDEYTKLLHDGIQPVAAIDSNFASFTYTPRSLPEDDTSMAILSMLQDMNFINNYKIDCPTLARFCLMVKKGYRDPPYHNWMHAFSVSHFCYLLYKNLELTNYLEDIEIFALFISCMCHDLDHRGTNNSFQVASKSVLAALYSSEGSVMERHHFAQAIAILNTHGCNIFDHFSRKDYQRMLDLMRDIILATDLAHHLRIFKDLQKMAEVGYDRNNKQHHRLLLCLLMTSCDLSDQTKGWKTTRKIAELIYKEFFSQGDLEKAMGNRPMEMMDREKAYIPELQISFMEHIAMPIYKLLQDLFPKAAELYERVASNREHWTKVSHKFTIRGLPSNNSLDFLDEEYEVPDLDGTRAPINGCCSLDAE

SMILES	Selectivity Ratio PDE10A/PDE2A (human recombinant PDE2A)	IC50 (human recombinant PDE2A) [nM]	IC50 (human recombinant PDE10A) [nM]	other results
COc1ccc2nnc3c(C)nc(-c4cc(OCCCF)ccc4F)n3c2n1 [TA3]	27.9	11.4	318	–
COc1ccc2nnc3c(C)nc(-c4cc(OCCCCF)ccc4F)n3c2n1 [TA4]	125.1	7.3	913	–
Cc1nc2ccc(CN3CCOCC3)cc2n2c(-c3c([18F])cccc3Cl)nnc12 [[^18F]B-23]	–	–	–	radiometabolites detected in the brain ([1]; at 2 min p.i.): 4 % of total activity; radiometabolites detected in the brain ([1]; at 10 min p.i.): 10 % of total activity; regional accumulation in microPET imaging [1]: highest accumulation of [^18F]B-23 has been observed in the striatum
Cc1nc(-c2cnn(C)c2-c2ccc(C(F)(F)F)cc2)c2c(N3CC([18F])C3)ncnn12 [[^18F]PF-05270430]	–	–	–	IC50 (hPDE2A; Pfizer PET ligand): 0.5 nM; IC50 (hPDE10A): 3000 nM; uptake in PET studies [2]: rapid and high uptake
CCCCCCC(C(C)O)n1cnc2c(N)ncnc21 (stereo not drawn) [EHNA, erythro-9-(2-hydroxy-3-nonyl)-adenine]	–	–	–	IC50 (hPDE2A; Figure 1): ~1000 nM
COc1ccc(Cc2nn3c(C(CCCc4ccccc4)C(C)O)nc(C)c3c(=O)[nH]2)cc1OC (centres unmarked) [BAY 60-7550]	–	–	–	IC50 (hPDE2A; Figure 1): ~5 nM
COc1ccc2nnc3c(C)nc(-c4cc(OCCF)ccc4F)n3c2n1 [TA2, 9-(2-Fluoro-5-(2-fluoroethoxy)phenyl)-2-methoxy-7-methylimidazo[5,1-c]pyrido[2,3-e] [1,2,4]triazine]	7.4	10.4	77	–
